Data: US20220330549A1, “USE OF N-BENZYLBENZAMIDE-BASED COMPOUND AS HERBICIDE” (Northwest A&F University, priority 2020, published 2022)

Legend:
Format in all cases: in vivo
[1] = test system: nutgrass flatsedge; assay: Field test for weed control in a corn field; conditions: for Post-emergence weed control effect, Nutgrass flatsedge: 150 g a.i./ha, after treatment
Protocol: (§1) The weed control efficacy field test was performed in a corn field with some of the N-benzylbenzamide-based compounds of general formula I or II with reference to the method of GB/T 17980.42-2000. […] Spray treatments were performed in the stage where 2 leaves to 5 leaves were grown for the corns after the sowing. Representative compounds in the examples were used to prepare emulsifiable concentrates (10%), and spray treatments were performed with the concentrates in water at a dosage of 150 g(a.i.)/ha, and repeated 4 times for each treatment, and the area was 20 m^2. Oil dispersion with 25% of mesotrione was used as a control agent and applied at a dosage of 150 g(a.i.)/h. […] The herbicidal activities of the agents were evaluated on a scale of 1-9 levels according to the symptoms and severity of damage to the test weeds.
(§2) Level 2: equivalent to 0 to 2.5% of the weed in the blank control area;
(§3) Level 3: equivalent to 2.6 to 5% of the weed in the blank control area;
(§4) Level 4: equivalent to 5.1 to 10% of the weed in the blank control area;
(§5) Level 5: equivalent to 10.1 to 15% of the weed in the blank control area;
(§6) Level 6: equivalent to 15.1 to 25% of the weed in the blank control area;
(§7) Level 7: equivalent to 25.1 to 35% of the weed in the blank control area;
(§8) Level 8: equivalent to 35.1 to 67.5% of the weed in the blank control area; and
(§9) Level 9: equivalent to 67.6 to 100% of the weed in the blank control area.

[2] = test system: goosegrass; assay: Field test for weed control in a corn field; conditions: for Post-emergence weed control effect, Goose grass: 150 g a.i./ha, after treatment
Protocol: as §1, §2, §3, §4, §5, §6, §7, §8, §9

[3] = test system: green bristlegrass; assay: Field test for weed control in a corn field; conditions: for Post-emergence weed control effect, Green bristlegrass: 150 g a.i./ha, after treatment
Protocol: as §1, §2, §3, §4, §5, §6, §7, §8, §9

[4] = test system: Digitaria sanguinalis; assay: Field test for weed control in a corn field; conditions: for Post-emergence weed control effect, Digitaria sanguinalis: 150 g a.i./ha, after treatment
Protocol: as §1, §2, §3, §4, §5, §6, §7, §8, §9

[5] = test system: Amaranthus retroflexus; assay: Field test for weed control in a corn field; conditions: for Post-emergence weed control effect, Amaranthus retroflexus: 150 g a.i./ha, 30 days after treatment
Protocol: as §1, §2, §3, §4, §5, §6, §7, §8, §9

[6] = test system: Convolvulus arvensis; assay: Field test for weed control in a corn field; conditions: for Post-emergence weed control effect, Convolvulus arvensis: 150 g a.i./ha, after treatment
Protocol: as §1, §2, §3, §4, §5, §6, §7, §8, §9

[7] = test system: Barnyard grass; assay: Field test for weed control in a corn field; conditions: for Post-emergence weed control effect, Barnyard grass: 150 g a.i./ha, 30 days after treatment
Protocol: as §1, §2, §3, §4, §5, §6, §7, §8, §9

[8] = test system: Portulaca oleracea; assay: Field test for weed control in a corn field; conditions: for Post-emergence weed control effect, Portulaca oleracea: 150 g a.i./ha, after treatment
Protocol: as §1, §2, §3, §4, §5, §6, §7, §8, §9

[9] = test system: Chenopodium album; assay: Field test for weed control in a corn field; conditions: for Post-emergence weed control effect, Chenopodium album: 150 g a.i./ha, after treatment
Protocol: as §1, §2, §3, §4, §5, §6, §7, §8, §9

[10] = test system: Acalypha australis; assay: Field test for weed control in a corn field; conditions: for Post-emergence weed control effect, Acalypha australis: 150 g a.i./ha, after treatment
Protocol: as §1, §2, §3, §4, §5, §6, §7, §8, §9

[11] = test system: Solanum nigrum; assay: Field test for weed control in a corn field; conditions: for Post-emergence weed control effect, Solanum nigrum: 150 g a.i./ha, 30 days after treatment
Protocol: as §1, §2, §3, §4, §5, §6, §7, §8, §9

[12] = test system: Digitaria sanguinalis; assay: Herbicidal activity test for indoor pre-emergence soil treatment; design: key: 1-9 levels; higher = more weed remaining vs blank control; conditions: 150 g a.i./ha, visual inspection 21 days after treatment
Protocol: (§10) The herbicidal activity test for indoor pre-emergence soil treatment was performed with some of the N-benzylbenzamide-based compounds of general formula I or II with reference to the method of NY/T 1155.3-2006. Neutral sandy loam soil having an organic content of ≤2% was added to fill ⅘ of the pot, and the soil was completely moistened by infiltrating irrigation from the bottom of the pot. The seeds of the test weed were evenly spread on the soil surface, and then covered by 0.5 cm to 2.0 cm of soil depending on the seed size. Representative compounds in the examples were used to prepare emulsifiable concentrates (10%), and spray treatments to the soil were performed 24 hours after the sowing with the test agents diluted with water, at a spraying dosage of 150 g(a.i.)/ha. Then, the results were investigated by visual inspection 21 days after the treatments. The herbicidal activity of the agent was evaluated on a scale of 1-9 levels according to the symptoms and severity of damage to the test weeds.
as §2, §3, §4, §5, §6, §7, §8, §9

[13] = test system: Amaranthus retroflexus; assay: as above; design: key: 1-9 levels; higher = more weed remaining vs blank control; conditions: 150 g a.i./ha, visual inspection 21 days after treatment
Protocol: as §10, §2, §3, §4, §5, §6, §7, §8, §9

[14] = test system: Cyperaceae; assay: Post-emergence herbicidal activity test in a paddy field; design: key: level scale; higher level = more weed left vs blank control; conditions: 150 g a.i./ha (penoxsulam control 250 g(a.i.)/h)
Protocol: (§11) The post-emergence herbicidal activity test was performed in a paddy field with some of the N-benzylbenzamide-based compounds of general formula I or II with reference to the method of GB/T 17980.40-2000. […] Spray treatments were performed in the stage where 4 leaves to 5 leaves were grown for the rice seedlings which was about 1 month after the sowing. Representative compounds in the examples were used to prepare emulsifiable concentrates (10%), and spray treatments were performed with the concentrates in water at a dosage of 150 g(a.i.)/ha, and repeated 4 times for each treatment, and the area was 50 m^2. 25 g/L of penoxsulam suspension was used as a control agent and applied at a dosage of 250 g(a.i.)/h. The results were investigated by a value estimating survey method 15 days and 30 days after the treatments. The relative weed population quantities were estimated by comparing each agent treated area with an adjacent blank control area, and the results of which were investigated with the following grading standard method using the overall coverage of the weed population as an indicator.
as §2, §3, §4, §5, §6, §7, §8, §9

[15] = test system: Broadleaf weed; assay: as above; design: key: level scale; higher level = more weed left vs blank control; conditions: 150 g a.i./ha (penoxsulam control 250 g(a.i.)/h)
Protocol: as §11, §2, §3, §4, §5, §6, §7, §8, §9

[16] = test system: Gramineae; assay: as above; design: key: level scale; higher level = more weed left vs blank control; conditions: 150 g a.i./ha (penoxsulam control 250 g(a.i.)/h)
Protocol: as §11, §2, §3, §4, §5, §6, §7, §8, §9

[17] = test system: Humulus scandens; assay: Herbicidal activity test for indoor pre-emergence soil treatment; conditions: 150 g a.i./ha, visual inspection 21 days after treatment
Protocol: as §10, §2, §3, §4, §5, §6, §7, §8, §9

[18] = test system: green bristlegrass; assay: as above; design: key: level 1-9; higher = more weed remaining vs blank control; conditions: 150 g a.i./ha, visual inspection 21 days after treatment
Protocol: as §10, §2, §3, §4, §5, §6, §7, §8, §9

[19] = test system: Piemarker; assay: as above; design: key: level 1-9; higher = more weed remaining vs blank control; conditions: 150 g a.i./ha, visual inspection 21 days after treatment
Protocol: as §10, §2, §3, §4, §5, §6, §7, §8, §9

[20] = test system: Barnyard grass; assay: as above; design: key: level 1-9; higher = more weed remaining vs blank control; conditions: 150 g a.i./ha, visual inspection 21 days after treatment
Protocol: as §10, §2, §3, §4, §5, §6, §7, §8, §9

[21] = test system: green bristlegrass; assay: Herbicidal activity test for indoor post-emergence spraying on stems and leaves; design: key: grade level by weed remaining vs blank control, e.g. 5 = 10.1-15%; conditions: 150 g a.i./ha, visual inspection 21 days after treatment
Protocol: (§12) The post-emergence herbicidal activity test was performed with some of the N-benzylbenzamide-based compounds of general formula I or II with reference to the method of NY/T 1155.4-2006. […] After the sowing, the weed was moved to a greenhouse for regular cultivation. […] Then, the results were investigated by visual inspection 21 days after the treatments. […] Level 5: equivalent to 10.1 to 15% of the weed in the blank control area; Level 6: equivalent to 15.1 to 25% of the weed in the blank control area; Level 7: equivalent to 25.1 to 35% of the weed in the blank control area; Level 8: equivalent to 35.1 to 67.5% of the weed in the blank control area; and […]

[22] = test system: Digitaria sanguinalis; assay: as above; design: key: grade level by weed remaining vs blank control, e.g. 5 = 10.1-15%; conditions: 150 g a.i./ha, visual inspection 21 days after treatment
Protocol: as §12

[23] = test system: Humulus scandens; assay: as above; design: key: grade level by weed remaining vs blank control, e.g. 5 = 10.1-15%; conditions: 150 g a.i./ha, visual inspection 21 days after treatment
Protocol: as §12

[24] = test system: Amaranthus retroflexus; assay: as above; design: key: grade level by weed remaining vs blank control, e.g. 5 = 10.1-15%; conditions: 150 g a.i./ha, visual inspection 21 days after treatment
Protocol: as §12

[25] = test system: Piemarker; assay: as above; design: key: grade level by weed remaining vs blank control, e.g. 5 = 10.1-15%; conditions: 150 g a.i./ha, visual inspection 21 days after treatment
Protocol: as §12

[26] = test system: Barnyard grass; assay: as above; design: key: grade level by weed remaining vs blank control, e.g. 5 = 10.1-15%; conditions: 150 g a.i./ha, visual inspection 21 days after treatment
Protocol: as §12

[27] = 150 g(a.i.)/ha, 21 days after treatments

SMILES | Post-emergence weed control effect, Nutgrass flatsedge [1] | Post-emergence weed control effect, Goose grass [2] | Post-emergence weed control effect, Green bristlegrass [3] | Post-emergence weed control effect, Digitaria sanguinalis [4] | Post-emergence weed control effect, Amaranthus retroflexus [5] | Post-emergence weed control effect, Convolvulus arvensis [6] | Post-emergence weed control effect, Barnyard grass [7] | Post-emergence weed control effect, Portulaca oleracea [8] | Post-emergence weed control effect, Chenopodium album [9] | Post-emergence weed control effect, Acalypha australis [10] | Post-emergence weed control effect, Solanum nigrum [11] | Herbicidal Activity Digitaria sanguinalis [12] | Herbicidal Activity Amaranthus retroflexus [13] | Herbicidal activity 15 days after treatment Cyperaceae [14] | Herbicidal activity 30 days after treatment Cyperaceae [14] | Herbicidal activity 15 days after treatment Broadleaf weed [15] | Herbicidal activity 30 days after treatment Broadleaf weed [15] | Herbicidal activity 15 days after treatment Gramineae [16] | Herbicidal activity 30 days after treatment Gramineae [16] | Herbicidal Activity Humulus scandens [17] | other results
COc1ccccc1C(=O)NCc1ccc(F)cc1 [Compound A02] | 1 | 1 | 1 | 1 | 1 | 1 | 1 | 1 | 1 | 1 | 1 | 1 | 3 (equivalent to 2.6 to 5% of the weed in the blank control area) | 1 | 1 | 1 | 1 | 1 | 1 | 4 (equivalent to 5.1 to 10% of the weed in the blank control area) | controlling effect on nutgrass flatsedge [1, 27]: 1; controlling effect on goosegrass [2, 27]: 1; controlling effect on green bristlegrass [3, 27]: 1; controlling effect on Digitaria sanguinalis [4, 27]: 1; controlling effect on Amaranthus retroflexus [5, 27]: 1; controlling effect on Convolvulus arvensis [6, 27]: 1; controlling effect on barnyard grass [7, 27]: 1; controlling effect on Portulaca oleracea [8, 27]: 1; controlling effect on Chenopodium album [9, 27]: 1; controlling effect on Acalypha australis [10, 27]: 1; controlling effect on Solanum nigrum [11, 27]: 1; Herbicidal Activity Green bristlegrass [18]: 2 (equivalent to 0 to 2.5% of the weed in the blank control area); Herbicidal Activity Piemarker [19]: 2 (equivalent to 0 to 2.5% of the weed in the blank control area); Herbicidal Activity Barnyard grass [20]: 1; Herbicidal Activity Green bristlegrass [21]: 2 (equivalent to 0 to 2.5% of the weed in the blank control area); Herbicidal Activity Digitaria sanguinalis [22]: 1; Herbicidal Activity Humulus scandens [23]: 1; Herbicidal Activity Amaranthus retroflexus [24]: 1; Herbicidal Activity Piemarker [25]: 1; Herbicidal Activity Barnyard grass [26]: 1
COc1ccccc1C(=O)NCc1cc(F)cc(F)c1 [Compound A03, N-(3,5 difluorobenzyl)-2-methoxybenzamide] | 2 (equivalent to 0 to 2.5% of the weed in the blank control area) | 2 (equivalent to 0 to 2.5% of the weed in the blank control area) | 2 (equivalent to 0 to 2.5% of the weed in the blank control area) | 1 | 1 | 1 | 1 | 1 | 1 | 2 (equivalent to 0 to 2.5% of the weed in the blank control area) | 1 | 2 (equivalent to 0 to 2.5% of the weed in the blank control area) | 1 | 2 (equivalent to 0 to 2.5% of the weed in the blank control area) | 1 | 1 | 2 (equivalent to 0 to 2.5% of the weed in the blank control area) | 2 (equivalent to 0 to 2.5% of the weed in the blank control area) | 1 | 2 (equivalent to 0 to 2.5% of the weed in the blank control area) | Herbicidal Activity Green bristlegrass [18]: 1; Herbicidal Activity Piemarker [19]: 1; Herbicidal Activity Barnyard grass [20]: 1; Herbicidal Activity Green bristlegrass [21]: 1; Herbicidal Activity Digitaria sanguinalis [22]: 2 (equivalent to 0 to 2.5% of the weed in the blank control area); Herbicidal Activity Humulus scandens [23]: 1; Herbicidal Activity Amaranthus retroflexus [24]: 1; Herbicidal Activity Piemarker [25]: 1; Herbicidal Activity Barnyard grass [26]: 1
